“And” between values parts separate entries of the source, which are not always exact repeats. Identical values can stand only once.
Columns and labels:
Aedes albopictus = assay: Olfactometer attraction test of compounds and compositions; type: in vivo
Text: The olfactometer was cleaned after each battery of tests.

Aedes aegypti [1] = assay: Olfactometer attraction test, treatment port vs control port, approximately 75 female mosquitoes; type: in vivo; conditions: for Acetone Avg response: average of n = 4 trials, 500 μL from a 60 mm diameter glass petri dish; for Δ [(Resp with LA) − Resp] (%): difference between response with L-lactic acid and response alone; for Response with Ace (%): base compound together with acetone; for Response with L-LA (%): compound 500 μL together with L-lactic acid; for Δ [(Resp with Ace) − Resp] (%): difference between response with acetone and response alone; for Response Avg %: 60 mL glass petri dish; for LA Avg response: average of n = 51 trials, 200 μL of 1 μg/μL methanolic solution
Anopheles albimanus = assay: Olfactometer attraction test of compounds and compositions; type: in vivo;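 also: olfactometer with a treatment port and a matching control port using identical delivery device and conditions, both opened together, three tests per battery, each run in its own cage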
Aedes aegypti [2] = assay: Formulation and verification of the best blend: one treatment vs another treatment in the olfactometer; conditions: 200 μg L-lactic acid (1w) vs. 200 μg L-lactic acid (1w) + Acetone (3B)
Experimental: The tests were conducted in an olfactometer (55 ft^3/min airflow, 80° F., 60% R.H.) as described by Posey, J. Med. Entomol., 35, 330-334 (1998); and LA is lactic acid. Mosquitoes were allowed to settle at least one hour prior to testing. The olfactometer was cleaned after each battery of tests. Each battery consisted of three tests, conducted at 08:30, 11:00 and 13:00 hours local time. Each of the three tests was conducted in a separate cage. The control consisted of identical sample delivery devices and conditions compared to that of the treatment side. Both the treatment and control ports were opened and closed simultaneously when inserting a new treatment/control.

[3] = base compound alone (mode of action similar to lactic acid)
[4] = compound alone, high dose of 500 μL

NCCCCN [1,4-Diaminobutane]
% caught (Aedes albopictus; single treatment, 1B (1 black cap)): 6.8%

CC(C)=O [acetone]
Acetone Avg response (Aedes aegypti [1]): 51%
Acetone Avg response (Aedes aegypti [1]; listed as Acetone): Acetone Avg: 203/4 = 51%, n = 4 trials
Response with L-LA (%), average in parentheses (Aedes aegypti [1]; compound 500 μL with L-lactic acid, average of the trials): (88%)
Response (%), average in parentheses (Aedes aegypti [1]; compound alone 500 μL, average of the trials): (51%)
Δ [(Resp with LA) − Resp] (%) (Aedes aegypti [1]): 37%
Acetone response (%) (Aedes aegypti [1]; single trials, 500 μL, plated on a small petri dish): 51% and 48% and 53%
% caught (Aedes albopictus; single substance, 500 μL Dish): 9.1%
% caught (Anopheles albimanus; single treatment, 500 μL): 29.6%

C=CC(=C)C [isoprene]
Response (%) (Aedes aegypti [1]; [3]): 12%
Response with Ace (%) (Aedes aegypti [1]): 56%
Response with L-LA (%) (Aedes aegypti [1]): 23%
Response (%) (Aedes aegypti [1]; [4]): 12%
Δ [(Resp with LA) − Resp] (%) (Aedes aegypti [1]): 11%
Δ [(Resp with Ace) − Resp] (%) (Aedes aegypti [1]): 44%
% caught (Anopheles albimanus; single treatment, 500 μL): 0.0%

CCCCCC(C)=O [2-heptanone]
Response with L-LA (%) (Aedes aegypti [1]): 42%
Response (%) (Aedes aegypti [1]; [4]): 17%
Δ [(Resp with LA) − Resp] (%) (Aedes aegypti [1]): 25%
% caught (Anopheles albimanus; single treatment, 500 μL): 10.4%

CCSSCC [diethyl disulfide]
Response with L-LA (%) (Aedes aegypti [1]): 49%
Response (%) (Aedes aegypti [1]; [4]): 33%
Δ [(Resp with LA) − Resp] (%) (Aedes aegypti [1]): 16%
% caught (Anopheles albimanus; single treatment, 500 μL): 2.8%

CSC [dimethyl sulfide]
Response with L-LA (%) (Aedes aegypti [1]): 79%
Response (%) (Aedes aegypti [1]; [4]): 32%
Δ [(Resp with LA) − Resp] (%) (Aedes aegypti [1]): 47%
% caught (Anopheles albimanus; single treatment, 500 μL): 68.4%

CCCC(=O)CCC [4-heptanone]
Response with L-LA (%) (Aedes aegypti [1]): 32%
Response (%) (Aedes aegypti [1]; [4]): 12%
Δ [(Resp with LA) − Resp] (%) (Aedes aegypti [1]): 20%
% caught (Anopheles albimanus; single treatment, 500 μL): 8.0%

CCCCCCC(C)=O [2-octanone]
Response with L-LA (%) (Aedes aegypti [1]): 16%
Response (%) (Aedes aegypti [1]; [4]): 8%
Δ [(Resp with LA) − Resp] (%) (Aedes aegypti [1]): 8%
% caught (Anopheles albimanus; single treatment, 500 μL): 28.6%

CC(=O)CC(C)C [4-methyl-2-pentanone]
Response with L-LA (%) (Aedes aegypti [1]): 64%
Response (%) (Aedes aegypti [1]; [4]): 0%
Δ [(Resp with LA) − Resp] (%) (Aedes aegypti [1]): 64%
Response Avg % (Aedes aegypti [1]; single compound, dose 500 (μL), Aedes aegypti attraction): 0.0%
% caught (Anopheles albimanus; single treatment, 500 μL): 1.3%

CCCCCCCCC(C)=O [2-decanone]
Response with L-LA (%) (Aedes aegypti [1]): 24%
Response (%) (Aedes aegypti [1]; [4]): 14%
Δ [(Resp with LA) − Resp] (%) (Aedes aegypti [1]): 10%
% caught (Anopheles albimanus; single treatment, 500 μL): 4.0%

CC(=O)C(C)C [3-methyl-2-butanone]
Response with L-LA (%) (Aedes aegypti [1]): 82%
Response (%) (Aedes aegypti [1]; [4]): 8%
Δ [(Resp with LA) − Resp] (%) (Aedes aegypti [1]): 74%
% caught (Anopheles albimanus; single treatment, 500 μL): 24.4%

C[C@H](O)C(=O)O [L-lactic acid]
LA Avg response (Aedes aegypti [1]): 26%
LA Avg response (Aedes aegypti [1]; listed as LA): LA Avg: 1303/51 = 26%, n = 51 trials
Response (%) (Aedes aegypti [1]; [3]): 26%
Response with Ace (%) (Aedes aegypti [1]): 88%
Δ [(Resp with Ace) − Resp] (%) (Aedes aegypti [1]): 62%
L-lactic acid response (%) (Aedes aegypti [1]; single trials, 200 μL of a 1 μg/1 μL methanolic solution, dried 3 minutes in a petri dish, percentage caught of 75 female mosquitos): 27%
% caught (Aedes albopictus; single substance, 200 μg, listed as LA): 11.7% and 8.3%
% caught (Anopheles albimanus; single substance, 400 μg dish): 1.3%
% mosquitoes trapped, treatment vs treatment (Aedes aegypti [2]): 8%

CCCSSC [methyl propyl disulfide]
Response with L-LA (%) (Aedes aegypti [1]): 40%
Response (%) (Aedes aegypti [1]; [4]): 19%
Δ [(Resp with LA) − Resp] (%) (Aedes aegypti [1]): 21%
% caught (Anopheles albimanus; single treatment, 500 μL): 12.3%

CSSSC [dimethyl trisulfide]
Response with L-LA (%) (Aedes aegypti [1]): 67%
Response (%) (Aedes aegypti [1]; [4]): 21%
Δ [(Resp with LA) − Resp] (%) (Aedes aegypti [1]): 46%
Response Avg % (Aedes aegypti [1]; no Base, Activator1 dose 500): 21.0%
% caught (Anopheles albimanus; single treatment, 500 μL): 91.8%

CCCCC(=O)CC [3-heptanone]
Response with L-LA (%) (Aedes aegypti [1]): 36%
Response (%) (Aedes aegypti [1]; [4]): 12%
Δ [(Resp with LA) − Resp] (%) (Aedes aegypti [1]): 24%
% caught (Anopheles albimanus; single treatment, 500 μL): 11.3%

CCCCC(=O)CCCC [5-nonanone]
Response with L-LA (%) (Aedes aegypti [1]): 47%
Response (%) (Aedes aegypti [1]; [4]): 14%
Δ [(Resp with LA) − Resp] (%) (Aedes aegypti [1]): 33%
% caught (Anopheles albimanus; single treatment, 500 μL): 12.7%

Cc1ccco1 [2-methylfuran]
Response with L-LA (%) (Aedes aegypti [1]): 52%
caught in CK (check or control port) (Aedes aegypti [1]; compound alone 500 μL in treatment port, mosquitoes in control port): 30%
Response (%) (Aedes aegypti [1]; [4]): 15%
Δ [(Resp with LA) − Resp] (%) (Aedes aegypti [1]): 37%
% caught (Anopheles albimanus; single treatment, 500 μL): 35.5%

CSSC [dimethyl disulfide]
Response with L-LA (%) (Aedes aegypti [1]): 86%
Response (%) (Aedes aegypti [1]; [4]): 36%
Δ [(Resp with LA) − Resp] (%) (Aedes aegypti [1]): 50%
% caught (Anopheles albimanus; single treatment, 500 μL): 97.3%

Source: patent US7771713B2, “Chemical composition that attract arthropods” (priority 1999, dated 2010)
